Key:
[1] = human gut metagenome, 24 h, 2 µM
[2] = (§1) The drug is tested on Z-002 corresponding to rabbit gut metagenome with ENA study accession number: PRJEB37062 and ENA sample accession number: ERS12561802 for biotransformation under anaerobic condition. The drug concentrations were measured over 9 timepoints collected between 0 and 24 hours of incubation by liquid-chromatography-coupled mass spectrometry (LC–MS); conditions: 2 µM
[3] = as §1, with “Z-029” for “Z-002”, “rat” for “rabbit”, “ERS12561828” for “ERS12561802”; conditions: 2 µM
[4] = human gut metagenome, 24 h, 2 µM; remark: listed apart in the source
[5] = human gut metagenome, 24 h, 2 µM; remark: listed apart in the source
[6] = as §1, with “WLS-038” for “Z-002”, “human” for “rabbit”, “ERS12561745” for “ERS12561802”; conditions: 2 µM
[7] = as §1, with “Z-019” for “Z-002”, “rat” for “rabbit”, “ERS12561818” for “ERS12561802”; conditions: 2 µM
[8] = human gut metagenome, 24 h, 2 µM; remark: listed apart in the source
[9] = human gut metagenome, 24 h, 2 µM; remark: listed apart in the source
Note: call rule not given here.

SMILES	Bacterial Biotransformation [1]	Bacterial Biotransformation [2]	Bacterial Biotransformation [3]	Bacterial Biotransformation [4]	Bacterial Biotransformation [5]	Bacterial Biotransformation [6]	Bacterial Biotransformation [7]	Bacterial Biotransformation [8]	Bacterial Biotransformation [9]
NC12CC3CC(CC(C3)C1)C2 [AMANTADINE]	Compound NOT metabolized	Compound NOT metabolized	Compound NOT metabolized	Compound NOT metabolized	Compound NOT metabolized	Compound NOT metabolized	Compound NOT metabolized	Compound NOT metabolized	Compound NOT metabolized
CCC(=O)NCC[C@@H]1CCc2ccc3c(c21)CCO3 [RAMELTEON]	Compound metabolized	Compound metabolized	Compound NOT metabolized	Compound metabolized	Compound metabolized	Compound metabolized	Compound NOT metabolized	Compound metabolized	Compound metabolized
CC(CN1c2ccccc2Sc2ccccc21)N(C)C (stereo not given) [PROMETHAZINE]	Compound NOT metabolized	Compound NOT metabolized	Compound NOT metabolized	Compound metabolized	Compound metabolized	Compound metabolized	Compound NOT metabolized	Compound NOT metabolized	Compound metabolized
CNS(=O)(=O)Cc1ccc2[nH]cc(CCN(C)C)c2c1.O=C(O)CCC(=O)O [SUMATRIPTAN SUCCINATE]	Compound NOT metabolized	Compound metabolized	Compound NOT metabolized	Compound NOT metabolized	Compound metabolized	Compound NOT metabolized	Compound NOT metabolized	Compound NOT metabolized	Compound NOT metabolized
CC(C)(C#N)c1cc(Cn2cncn2)cc(C(C)(C)C#N)c1 [ANASTROZOLE]	Compound NOT metabolized	Compound metabolized	Compound NOT metabolized	Compound metabolized	Compound metabolized	Compound NOT metabolized	Compound NOT metabolized	Compound metabolized	Compound NOT metabolized
Cc1ccc(S(=O)(=O)NC(=O)NN2CC3CCCC3C2)cc1 (stereo not given) [GLICLAZIDE]	Compound metabolized	Compound metabolized	Compound NOT metabolized	Compound metabolized	Compound metabolized	Compound metabolized	Compound NOT metabolized	Compound metabolized	Compound metabolized
CCN(CC)CCOCCOC(=O)C1(c2ccccc2)CCCC1.O=C(O)CC(O)(CC(=O)O)C(=O)O [CARBETAPENTANE CITRATE]	Compound metabolized	Compound metabolized	Compound NOT metabolized	Compound metabolized	Compound metabolized	Compound metabolized	Compound NOT metabolized	Compound metabolized	Compound metabolized
Cc1ccc(S(=O)(=O)NC(=O)NN2CCCCCC2)cc1 [TOLAZAMIDE]	Compound metabolized	Compound metabolized	Compound NOT metabolized	Compound metabolized	Compound metabolized	Compound metabolized	Compound NOT metabolized	Compound NOT metabolized	Compound metabolized
CN/C(=N/CCSCc1nc[nH]c1C)NC#N [CIMETIDINE]	Compound NOT metabolized	Compound NOT metabolized	Compound NOT metabolized	Compound metabolized	Compound metabolized	Compound NOT metabolized	Compound NOT metabolized	Compound NOT metabolized	Compound NOT metabolized
COc1c(C)c2c(c(O)c1C/C=C(\C)CCC(=O)OCCN1CCOCC1)C(=O)OC2 [MYCOPHENOLATE MOFETIL]	Compound metabolized	Compound metabolized	Compound metabolized	Compound metabolized	Compound metabolized	Compound metabolized	Compound NOT metabolized	Compound metabolized	Compound metabolized
CC(CN(C)C)CN1c2ccccc2CCc2ccccc21.O=C(O)/C=C\C(=O)O (stereo not given) [TRIMIPRAMINE MALEATE]	Compound metabolized	Compound NOT metabolized	Compound NOT metabolized	Compound metabolized	Compound metabolized	Compound NOT metabolized	Compound NOT metabolized	Compound NOT metabolized	Compound NOT metabolized
CCN(CC)CC#CCOC(=O)C(O)(c1ccccc1)C1CCCCC1.Cl (stereo not given) [OXYBUTYNIN CHLORIDE]	Compound metabolized	Compound metabolized	Compound NOT metabolized	Compound metabolized	Compound metabolized	Compound metabolized	Compound NOT metabolized	Compound metabolized	Compound metabolized
CC[C@@H](CO)NC(=O)[C@@H]1C=C2c3cccc4c3c(cn4C)C[C@H]2N(C)C1.O=C(O)/C=C\C(=O)O [METHYSERGIDE MALEATE]	Compound NOT metabolized	Compound NOT metabolized	Compound NOT metabolized	Compound NOT metabolized	Compound metabolized	Compound NOT metabolized	Compound NOT metabolized	Compound NOT metabolized	Compound NOT metabolized
CN1CCOC(c2ccccc2)c2ccccc2C1 (stereo not given) [NEFOPAM]	Compound metabolized	Compound NOT metabolized	Compound NOT metabolized	Compound metabolized	Compound metabolized	Compound NOT metabolized	Compound NOT metabolized	Compound NOT metabolized	Compound NOT metabolized
CN1CC(=O)N2[C@H](c3ccc4c(c3)OCO4)c3[nH]c4ccccc4c3C[C@@H]2C1=O	Compound NOT metabolized	Compound metabolized	Compound NOT metabolized	Compound metabolized	Compound metabolized	Compound metabolized	Compound NOT metabolized	Compound NOT metabolized	Compound metabolized
